Where a SMILES comes first, the peptide text is derived from it. The star is where a group is joined. MeOSuc = COC(=O)CCC(=O)*; CHN2 = [N-]=[N+]=C*; CH2Cl = ClC*
Tests used:
[1] = test system: C57BL/6J mice, closed head trauma; assay: Closed head injury (traumatic brain injury) in mice; type: in vivo, mouse
Procedure: The closed head injury method was used to determine the effect of the elastase inhibitor on the development of brain necrosis and on the neurological status assessed using the neurological severity score (NSS). NSS test was performed 1 hour after trauma. During NSS test, various reflexes, ability to move, beam balance, beam walk and other behavior parameters like seeking and exiting from a cycle were monitored. Development of necrosis was measured by assessing necrotic space in brain slices stained with 2,3,5-triphenyl-2H-tetrazolium chloride (TTC).
C57BL/6J mice weighing 40+4 g (mean±SD) were used in the study. A weight-drop device was used to deliver a shock to the scull resulting in a controlled cerebral injury. Impact was delivered by a silicone-coated 5 mm metal tip extruding from a platform that falls down a frame. This model of cranial injury has been used in previous studies [Feldman Z et al., J Neurosurg (1995) 83:1060-1066; Shapira Y et al., J Neurosurg Anesthesiol (1995) 7:17-25].). All animal procedures and care techniques were approved by the Ben-Gurion University of the Negev Committee for the Ethical Care and Use of Animals in Research.
Mice were prepared for surgery by anesthetization with isoflurane and allowed to breathe spontaneously. Maintenance of adequate anesthesia for the experimental procedure was confirmed by loss of corneal reflexes. Once the corneal reflexes were abolished, a midline scalp incision was made and the scalp and underlying muscles were moved laterally. Closed head trauma (CHT) was delivered to the skull over the frontal portion of the left cerebral hemisphere. 1 minute after the trauma 100 μg of elastase inhibitor II or III in its vehicle (DMSO solution), were injected intracerebraspinaly by direct delivery into the cisterna magna. The vehicle itself was previously found to have no effect.
In addition to the wild type C57BL/6J mice, neutrophil elastase knockout mice strain B6.129X1-Elane were also examined. All procedures were approved by the Ethics Committee of Ben-Gurion University of Negev.

elastase-like activity = assay: Elastase-like activity in lysates of KCN-treated U-937 cells (MAAPV substrate); type: biochemical, human
PC12 cells = assay: KCN-induced necrosis of PC12 cells, LDH release; type: cell-based, rat; conditions: for KCN-induced necrotic cell death assessed by LDH release: PC12, KCN 5 hours, FIGS. 6, 7A-B; for inhibition at 0.0001 µM / inhibition at 0.001 µM / inhibition at 0.01 µM / inhibition at 0.1 µM / inhibition at 1 µM: Rattus norvegicus, PC-12, 5 h, KCN, PC12, LDH release (Table 5); for inhibition at 0.0001 µM / % protection at indicated concentration 0.1 nM: 0.1 nM; for inhibition at 0.0001 µM: read-out: % protection at 0.1 nM; for inhibition at 0.001 µM / % protection at indicated concentration 1 nM: 1 nM; for inhibition at 0.001 µM: read-out: % protection at 1 nM; for inhibition at 0.01 µM / % protection at indicated concentration 10 nM: 10 nM; for inhibition at 0.01 µM: read-out: % protection At 10 nM; for inhibition at 0.1 µM: read-out: % protection at 0.1 μM; for inhibition at 1 µM: read-out: % protection at 1 μM
Procedure: The rat pheochromocytoma PC12 cell line was propagated in DMEM medium (Beit Haemek, Israel), supplemented with 5% heat-inactivated calf serum, 10% heat-inactivated horse serum, 2 mM L-glutamine, 100 U/ml penicillin and 100 μg/ml streptomycin. PC12 cells in logarithmic phase were seeded at a concentration of 1.2×10^5/well in 96-well plates and incubated overnight.
Thereafter, the cells were washed twice and maintained in RPMI-1640 (U-937cells) and DMEM (PC-12 cells) glucose-free medium, supplemented with 2 mM pyruvate and 10% dialyzed FCS for one hour. Then cells were treated with or without KCN (Merck, Germany) at the indicated concentrations for 7 hours (U-937 cells), or for 5 hours (PC12 cells).
Elastase inhibitors II (MeOSuc-AAPA-CMK) and elastase inhibitor III (MeOSuc-AAPV-CMK) were purchased from Calbiochem-Novabiochem, USA. Compound Gly-Phe diazomethylketone was purchased from MP Biomedicals, USA. All the compounds disclosed in Table 1 hereinabove were purchased from ChemDiv, San Diego, CA. The compounds were dissolved in DMSO and were administered 30 min before addition of the cell death inducer. The final concentration of DMSO, added to all samples, was 0.1%, which had no effect by itself siRNA and cell transfection
The amount of LDH released from lysed cells is a sensitive measure of cell death. Necrotic cell death was measured in 96-well plates using Promega CytoTox 96 LDH assay kit. LDH content from the cells lysed in 0.1% Triton X-100 for 10 min was used as an index of total LDH. The LDH released in culture medium was used as an index of necrotic cell death and the percentage from total LDH was calculated. The protection by the inhibitor was calculated based on comparing percentage of LDH release in the presence and in the absence of the inhibitor. The inhibitors were also added to totals, blanks and controls. Absorbance at 490 nm was measured by ELISA reader (BioTec).
These compounds were tested for their ability to inhibit necrosis induced by KCN in PC12 cells. The necrotic mode of cell death in this system was validated as previously described. PC12 cells were challenged with KCN as described above. The protective results of the compounds against KCN-induced necrosis assessed using LDH release method are shown below in Table 5. The IC50 values of these inhibitors is in the range of tens to single nanomolar.

Compound	inhibition at 0.0001 µM (PC12 cells)	inhibition at 0.001 µM (PC12 cells)	inhibition at 0.01 µM (PC12 cells)	inhibition at 0.1 µM (PC12 cells)	inhibition at 1 µM (PC12 cells)	other results
COC(=O)CCC(=O)N[C@@H](C)C(=O)N[C@@H](C)C(=O)N1CCC[C@H]1C(=O)N[C@H](C(=O)CCl)C(C)C [EI III, MeOSuc-AAPV-CMK] (MeOSuc-AAPV-CH2Cl)						neurological severity score (NSS) ([1]; 100 μg into cisterna magna 1 min after trauma, 1 hour post injury): significantly reduce neurological damage; space of necrotic tissue, TTC staining ([1]; 100 μg into cisterna magna, untreated traumatized 50%): 25 % of the damaged hemisphere; inhibition of necrosis-induced elastase-like activity (elastase-like activity; 100 μM): completely inhibited; effect on elastase activity of control cells (elastase-like activity; 100 μM, control cells): slight effect; IC50 (elastase-like activity; lysates after 10 mM KCN 30 min, FIG. 3, read-out: IC50 of inhibition of necrosis-induced elastase-like activity): 2740 nM; induction of elastase-like enzymatic activity in intact cells (elastase-like activity; treatment of intact cells): abrogated the induction; KCN-induced necrotic cell death assessed by LDH release (PC12 cells): inhibited in a dose dependent manner; inhibition of necrosis induced by KCN at high concentrations (PC12 cells; up to 300 μM): significantly inhibited necrosis; effect of inhibitor by itself on PC-12 cells (PC12 cells; up to 300 μM, without KCN): inactive by themselves
CCOC(=O)[C@H]1O[C@@H]1C(=O)N[C@@H](CC(C)C)C(=O)NCCC(C)C [E-64d]						effect on elastase-like proteolytic activity (elastase-like activity; lysates after 10 mM KCN 30 min, data not shown): no effect
CC1Cc2ccccc2N1S(=O)(=O)c1ccc(C(=O)O)cc1 (stereo not drawn) [D216-0746, 4-((2-methylindolin-1-yl)sulfonyl)benzoic acid]	29%	37%	47%	84%	90%	
O=C(N1CCN(c2nnc3ccc(Cl)cn23)CC1)C1(c2ccccc2)CC1 [T404-2346, (4-(6-chloro-[1,2,4]triazolo[4,3-a]pyridin-3-yl)piperazin-1-yl)(1-phenylcyclopropyl)methanone]				42%		
O=C(CC1CCCC1)N1CCN=C1N1CCCC1 [M059-0055, 2-cyclopentyl-1-(2-(pyrrolidin-1-yl)-4,5-dihydro-1H-imidazol-1-yl)ethanone]					68%	
CC(C)C(=O)Nc1ccc(Oc2ccc(NC(=O)C(C)C)cc2)cc1 [Y200-4083, N,N'-(oxybis(4,1-phenylene))bis(2-methylpropanamide)]						% protection at indicated concentration 0.1 nM (PC12 cells; KCN-induced necrosis (Table 2)): 11%; % protection at indicated concentration 1 nM (PC12 cells; KCN-induced necrosis (Table 2)): 25%; % protection at indicated concentration 10 nM (PC12 cells; KCN-induced necrosis (Table 2)): 32%; % protection at indicated concentration 100 nM (PC12 cells; KCN-induced necrosis (Table 2)): 49%; % protection at indicated concentration 1 μM (PC12 cells; KCN-induced necrosis (Table 2)): 74%
O=C1C(NS(=O)(=O)c2ccc(Cl)s2)CCN1c1ccccc1 (stereo not drawn) [P316-0028, 5-chloro-N-(2-oxo-1-phenylpyrrolidin-3-yl)thiophene-2-sulfonamide]			43%	49%	53%	
CC(C)N1CCN(C(=O)CN2C(=O)C3CCCN3C(=O)c3cc(F)ccc32)CC1 (stereo not drawn) [M284-0488, 7-fluoro-10-(2-(4-isopropylpiperazin-1-yl)-2-oxoethyl)-2,3-dihydro-1H-benzo[e]pyrrolo[1,2-a][1,4]diazepine-5,11(10H,11aH)-dione]	35%	51%	82%	72%	80%	
CCn1c2ccccc2c2nnc(NCc3ccccn3)nc21 [E205-0066, 5-ethyl-N-(pyridin-2-ylmethyl)-5H-[1,2,4]triazino[5,6-b]indol-3-amine]			18%	32%	58%	
O=S1(=O)N=C(NCCN2CCCC2)C(NCCN2CCCC2)=N1 [Z087-0195, 3,4-bis((2-(pyrrolidin-1-yl)ethyl)amino)-1,2,5-thiadiazole 1,1-dioxide]	9%	21%	25%	80%	98.5%	
CN(C)c1ccc(Nc2nc(-c3ccc(Cl)cc3)cs2)cc1 [4112-3656, N1-(4-(4-chlorophenyl)thiazol-2-yl)-N4,N4-dimethylbenzene-1,4-diamine]	30%	25%	55%	73%	77%	% protection at indicated concentration 0.1 nM (PC12 cells; KCN-induced necrosis (Table 2)): 30%; % protection at indicated concentration 1 nM (PC12 cells; KCN-induced necrosis (Table 2)): 25%; % protection at indicated concentration 10 nM (PC12 cells; KCN-induced necrosis (Table 2)): 55%; % protection at indicated concentration 100 nM (PC12 cells; KCN-induced necrosis (Table 2)): 73%; % protection at indicated concentration 1 μM (PC12 cells; KCN-induced necrosis (Table 2)): 77%
Cc1ccnc(Nc2nc(-c3cc(C)c(C)cc3C)cs2)c1 [M008-0111, N-(4-methylpyridin-2-yl)-4-(2,4,5-trimethylphenyl)thiazol-2-amine]	29%	36%	38%	46%	90%	% protection at indicated concentration 0.1 nM (PC12 cells; KCN-induced necrosis (Table 2)): 29%; % protection at indicated concentration 1 nM (PC12 cells; KCN-induced necrosis (Table 2)): 36%; % protection at indicated concentration 10 nM (PC12 cells; KCN-induced necrosis (Table 2)): 38%; % protection at indicated concentration 100 nM (PC12 cells; KCN-induced necrosis (Table 2)): 46%; % protection at indicated concentration 1 μM (PC12 cells; KCN-induced necrosis (Table 2)): 90%
[N-]=[N+]=CC(=O)[C@H](Cc1ccccc1)NC(=O)CN [Gly-Phe-DMK, Gly-Phe-diazomethylketone, reference compound] (H-Gly-Phe-CHN2)						KCN-induced necrotic cell death assessed by LDH release (PC12 cells): inhibited cell necrosis
CC(=O)Nc1nc(SCCC(=O)O)n[nH]1 [L150-1122, 3-((5-acetamido-1H-1,2,4-triazol-3-yl)thio)propanoic acid]	22%	25%	30%	44%	68%	
COc1cc(OC)cc(-c2nc3ccc(Br)cc3c(=O)o2)c1 [3952-1000, 6-bromo-2-(3,5-dimethoxyphenyl)-4H-benzo[d][1,3]oxazin-4-one]	35%	33%	38%	35%	77%	% protection at indicated concentration 0.1 nM (PC12 cells; KCN-induced necrosis (Table 2)): 35%; % protection at indicated concentration 1 nM (PC12 cells; KCN-induced necrosis (Table 2)): 33%; % protection at indicated concentration 10 nM (PC12 cells; KCN-induced necrosis (Table 2)): 38%; % protection at indicated concentration 100 nM (PC12 cells; KCN-induced necrosis (Table 2)): 35%; % protection at indicated concentration 1 μM (PC12 cells; KCN-induced necrosis (Table 2)): 77%
O=C(c1ccccc1Br)N1CCN=C1N1CCCCC1 [M059-0193, (2-bromophenyl)-[2-(1-piperidyl)-4,5-dihydroimidazol-1-yl] methanone]						protection of cells at 10 μM (PC12 cells; 10 μM, KCN-induced necrosis (Table 2)): 10 μM confers protection 58% of cells

— patent publication US11945787B2, “Substituted imidazoles for preventing and/or treating cell or tissue necrosis” (Ela Pharma Ltd, priority 2015, dated 2024)
